Values of other authors in US20240358731A1, “SUMO PATHWAY AS AN OXYGEN SENSOR RELEVANT TO THE PATHOPHYSIOLOGY OF PULMONARY ARTERY HYPERTENSION AND CARDIAC ARRHYTHMIA” (Northeastern University, priority 2023, published 2024).
Non-standard residues stand in square brackets, D forms with d. Residues, ends and D or L forms follow the SMILES beside them. ξ: configuration not given here. *: point of attachment. X2 = O=C(CN*)COC(=O)c1c2ccccc2cc2ccccc12; X1 = O=C(Cc1ccc(O)c([N+](=O)[O-])c1)*; Thr(3ξ) = CC(O)[C@H](N)C(=O)O

Target: T1, SUMO activating enzyme (SAE) (Homo sapiens, UniProt Q9UBE0+Q9UBT2)
T1 sequence (Q9UBE0 1-346): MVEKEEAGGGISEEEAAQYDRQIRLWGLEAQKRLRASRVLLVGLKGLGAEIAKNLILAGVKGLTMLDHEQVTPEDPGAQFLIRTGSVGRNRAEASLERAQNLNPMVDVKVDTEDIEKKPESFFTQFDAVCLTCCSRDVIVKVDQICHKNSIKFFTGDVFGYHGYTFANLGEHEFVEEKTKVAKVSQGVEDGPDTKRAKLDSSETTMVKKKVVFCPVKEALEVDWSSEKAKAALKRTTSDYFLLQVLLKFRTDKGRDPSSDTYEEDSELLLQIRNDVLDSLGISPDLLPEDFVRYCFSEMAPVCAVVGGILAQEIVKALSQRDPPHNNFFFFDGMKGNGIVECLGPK
T1 sequence (Q9UBT2 1-640): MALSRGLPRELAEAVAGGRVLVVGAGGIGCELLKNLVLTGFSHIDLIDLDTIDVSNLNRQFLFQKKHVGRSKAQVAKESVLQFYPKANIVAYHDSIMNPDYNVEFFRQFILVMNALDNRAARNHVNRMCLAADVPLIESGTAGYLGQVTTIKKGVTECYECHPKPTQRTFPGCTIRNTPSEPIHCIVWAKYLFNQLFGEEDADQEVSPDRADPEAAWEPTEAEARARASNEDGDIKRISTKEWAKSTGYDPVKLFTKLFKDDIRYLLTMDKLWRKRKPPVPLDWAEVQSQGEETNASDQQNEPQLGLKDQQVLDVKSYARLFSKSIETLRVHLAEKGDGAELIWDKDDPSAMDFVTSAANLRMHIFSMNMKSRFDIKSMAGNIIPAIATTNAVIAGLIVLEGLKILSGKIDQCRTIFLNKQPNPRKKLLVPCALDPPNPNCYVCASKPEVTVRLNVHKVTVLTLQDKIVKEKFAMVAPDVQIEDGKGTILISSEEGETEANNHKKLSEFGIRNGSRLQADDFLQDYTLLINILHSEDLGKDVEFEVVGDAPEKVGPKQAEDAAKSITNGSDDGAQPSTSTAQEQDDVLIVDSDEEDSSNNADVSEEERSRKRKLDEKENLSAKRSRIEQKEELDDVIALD
Details: cited from earlier work

SMILES	formation of the E1-SUMO complex	SAE / SUMO E1 inhibition	SUMO-E1 activation
O=C(Oc1cc(C(=O)O[C@H]2O[C@@H](OC(=O)c3cc(O)c(O)c(OC(=O)c4cc(O)c(O)c(O)c4)c3)[C@H](OC(=O)c3cc(O)c(O)c(OC(=O)c4cc(O)c(O)c(O)c4)c3)[C@@H](OC(=O)c3cc(O)c(O)c(OC(=O)c4cc(O)c(O)c(O)c4)c3)[C@@H]2OC(=O)c2cc(O)c(O)c(OC(=O)c3cc(O)c(O)c(O)c3)c2)cc(O)c1O)c1cc(O)c(O)c(O)c1 [Davidiin]	blocks the formation of the E1-SUMO complex		
C=CC[C@@H](Nc1ccccc1)C12C=CC(O1)C(C(=O)OC)=C2C(=O)OC (stereo partly shown) [CID9549553]		covalently targets an allosteric binding pocket of SUMO E1	
COc1ccc(-c2nnc(Nc3nc4c(OC)cccc4s3)o2)cc1 [Compound N106]			capable of increasing SUMOylation through the activation of SUMO-E1
CCCCn1c(NS(=O)(=O)c2ccccc2)c(S(=O)(=O)c2ccc(C)cc2)c2nc3ccccc3nc21 [Compound 15]		most potent	
NS(=O)(=O)OC[C@H]1C[C@@H](Nc2ncncc2C(=O)c2ccn(Cc3cccc(Br)c3)n2)C[C@@H]1O [ML-792]		selective SAE inhibitor	
COc1ccc(NC(=O)Nc2ccc(Oc3ncnc4cc(Cl)ccc34)nc2)cc1OC1CCCC1 [Compound 10]	prevents formation of the E1-SUMO complex		

Test system: SUMOylation
Details: cited from earlier work

SMILES	SUMOylation inhibition
COc1cc(NC(=O)Nc2nc(-c3nc4ccccc4s3)cs2)cc(OC)c1OC [thiazole urea]	potent molecules capable of inhibiting SUMOylation in vitro
O=C(Oc1cc(C(=O)O[C@H]2O[C@@H](OC(=O)c3cc(O)c(O)c(OC(=O)c4cc(O)c(O)c(O)c4)c3)[C@H](OC(=O)c3cc(O)c(O)c(OC(=O)c4cc(O)c(O)c(O)c4)c3)[C@@H](OC(=O)c3cc(O)c(O)c(OC(=O)c4cc(O)c(O)c(O)c4)c3)[C@@H]2OC(=O)c2cc(O)c(O)c(OC(=O)c3cc(O)c(O)c(O)c3)c2)cc(O)c1O)c1cc(O)c(O)c(O)c1 [Davidiin]	one of the most potent natural product SUMOylation inhibitors identified
CCc1cc(=O)[nH]c(-n2nc(-c3ccccc3)cc2NC(=O)Nc2ccc(C(C)(C)C)cc2)n1 [Pyrazole urea]	potent molecules capable of inhibiting SUMOylation in vitro
CC1(C)CCC2=C(O1)c1ccccc1C(=O)C2=O [β-lapachone]	potent SUMOylation inhibitors
COC(=O)C1=C(C(=O)OC)C2([C@@H](Cc3ccc(C)cc3)Nc3ccccc3)C=CC1O2 (stereo partly shown) [COH000]	more potent SUMOylation inhibitor
CC1CC2=C(O1)c1cccc(O)c1C(=O)C2=O (stereo not shown) [nocardione A]	potent SUMOylation inhibitors
CC1CC2=C(O1)c1ccccc1C(=O)C2=O (stereo not shown) [33-DINOR-dunnione]	potent SUMOylation inhibitors
Cc1cc2c(o1)-c1ccccc1C(=O)C2=O [33-DINOR-dehydrodunnione]	potent SUMOylation inhibitors
COc1ccc(NC(=O)Nc2ccc(Oc3ncnc4cc(Cl)ccc34)nc2)cc1OC1CCCC1 [Compound 10]	potent in vitro SUMOylation inhibitor

Test system: SENP
Details: cited from earlier work

SMILES	SENP inhibition	inhibition of SUMO2 maturation
O=C(Nc1cccc(NC(=O)c2ccc(-c3cc(Cl)ccc3Cl)o2)c1)c1ccccc1 [Compound 50]	potent and selective SENP inhibition	
CNC(=O)c1cc(COC(=O)c2ccc3c(c2)c(COc2ccc4[nH]ccc4c2)cn3S(C)(=O)=O)cc(=O)[nH]1 [Compound 52]	potent and selective SENP inhibition	
CC(O)[C@H](NC(=O)[C@H](CCC(N)=O)NC(=O)[C@H](CCC(N)=O)NC(=O)Cc1ccc(O)c([N+](=O)[O-])c1)C(=O)NCC(=O)NCC(=O)COC(=O)c1c2ccccc2cc2ccccc12 (stereo partly shown) [VAE-500] (X1-QQ[Thr(3ξ)]G-X2)	more potent and selective SENP inhibitors	
CC(C)C[C@H](NC(=O)Cc1ccc(O)c([N+](=O)[O-])c1)C(=O)N[C@@H](CCCNC(=N)N)C(=O)NCC(=O)NCC(=O)COC(=O)c1c2ccccc2cc2ccccc12 [VAE-561]	more potent and selective SENP inhibitors	
CC(O)[C@H](NC(=O)[C@H](CCC(N)=O)NC(=O)Cc1ccc(O)c([N+](=O)[O-])c1)C(=O)NCC(=O)NCC(=O)COC(=O)c1c2ccccc2cc2ccccc12 (stereo partly shown) [VAE-499]	more potent and selective SENP inhibitors	
Cc1cc(OCC(=O)Nc2nonc2NC(=O)COc2ccc(Cl)c(C)c2)ccc1Cl [Compound 47]	potent and selective SENP inhibition	
CS(=O)(=O)n1cc(COc2ccc3[nH]ccc3c2)c2cc(C(=O)OCc3cc(C#N)[nH]c(=O)c3)ccc21 [Compound 53]	potent and selective SENP inhibition	
O=CCN1C(=O)C(NC(=O)c2cccc(NC(=O)OCc3ccccc3)c2)N=C(c2ccccc2)c2ccccc21 (stereo not shown) [Compound 39]	potent and selective SENP inhibition	
COc1ccc(-c2cccc(C(=O)NCc3cccc(NC(=O)CCc4ccccc4)c3)c2)cc1 [Compound 51]	potent and selective SENP inhibition	
CCOc1ccc(-c2nonc2NC(=O)COc2ccc(Cl)c(C)c2)cc1C [Compound 46]	potent and selective SENP inhibition	
O=C(COC(=O)c1ccc(NC(=O)c2cccc(OCc3ccccc3)c2)cc1)c1ccc(Cl)cc1 [Compound 43]	modest improvement in activity	
CNC(=O)c1cc(CNC(=O)c2ccc3c(c2)c(COc2ccc4[nH]ccc4c2)cn3S(C)(=O)=O)cc(=O)[nH]1 [Compound 54]	potent and selective SENP inhibition	
Cc1cc(-c2ccc(/N=N/c3c(N)c(S(=O)(=O)O)cc4cc(S(=O)(=O)O)ccc34)c(C)c2)ccc1/N=N/c1c(N)ccc2ccc(S(=O)(=O)O)cc12 [SPI-02]		more active at inhibiting SUMO2 maturation
O=C1C(O)=C(c2ccc(O)cc2)C(=O)C(O)=C1c1ccc(O)cc1 [NSC76919]	exhibited inhibitory activity	
O=C(/C=C/C1C(OC(=O)c2ccc(-c3ccccc3)cc2)CC2OC(=O)CC21)Oc1cccc(Cl)c1 (stereo not shown) [SI2]	potent and selective SENP inhibition	
O=C(NCc1cccc(CNC(=O)c2sc3cc(F)ccc3c2Cl)c1)c1sc2cc(F)ccc2c1Cl [Compound 49]	potent and selective SENP inhibition	
